melting point [°C] | SMILES
75.5 to 78 | Clc1ccc(OC(c2cccnc2)n2cncn2)c(Cl)c1 (stereo unspecified)
114 to 115 | CCOC(=O)c1cn(CC)nc1OCc1ccc(OCc2nc(-c3ccco3)oc2C)c(OC)c1
130 to 132 | OC(c1nnn[nH]1)c1ccccc1Cl (racemic)

Second part, the compound before the results:

SMILES | melting point [°C]
CCOC(=O)c1cc2cc(Cl)c(Cl)cc2[nH]1 | 215 to 218
Cc1cccc(NC(=O)NC(CCC(=O)O)C(=O)N(CC(=O)OC(C)(C)C)c2ccccc2)c1 (racemic) | 191
O=C(c1ccc(F)cc1)C1CCN(CCCn2c(=O)[nH]c3cc(C(F)(F)F)ccc32)CC1 | 160
